Measured values: ChEMBL document CHEMBL5518236, “Discovery of Clinical Candidate AZD5462, a Selective Oral Allosteric RXFP1 Agonist for Treatment of Heart Failure” (J Med Chem, 2024)
Values belong to the compound of their own block, whether it stands above or below them.

How the values were obtained:
[1] = Octanol/water partition coefficient, logD of the compound at pH 7.4 by shake flask method; assay type: physicochemical
[2] = Metabolic stability in human hepatocytes assessed as intrinsic clearance measured per 10^6 viable cells/ml at 1 uM measured upto 120 mins by LC-MS/MS analysis; assay type: ADME, cell-based, Hepatocyte; conditions: read-out: CLH
[3] = Metabolic stability in human hepatocytes assessed as unbound intrinsic clearance measured per 10^6 viable cells/ml at 1 uM measured upto 120 mins by LC-MS/MS analysis; assay type: ADME, cell-based, Hepatocyte; conditions: 2 h
[4] = Metabolic stability in human liver microsomes assessed as intrinsic clearance at 1 uM measured upto 30 mins by LC-MS/MS analysis; assay type: ADME, Microsome; conditions: read-out: CLH
[5] = Metabolic stability in human liver microsomes assessed as unbound intrinsic clearance at 1 uM measured upto 30 mins by LC-MS/MS analysis; assay type: ADME, Microsome; conditions: 0.5 h

SMILES: COc1cc(F)c(O[C@H]2CC[C@@](C)(C(=O)O)CC2)cc1C(=O)N[C@@H]1[C@H]2CC[C@H](C2)[C@@H]1C(=O)NCC(C)C
logD [1]: 2.6
hepatocyte CLint at 1 µM [2]: < 1 µL/min/1e6 cells
CL free [3]: < 1.4 µL/min
microsomal CLint at 1 µM [4]: 5.7 µL/min/mg
CL free [5]: 7.6 µL/min/mg

SMILES: CCc1cc(OC)c(C(=O)N[C@@H]2[C@H]3CC[C@H](C3)[C@@H]2C(=O)NCC2(C)CCC2)cc1O[C@H]1CC[C@@](C)(C(=O)O)CC1
logD [1]: 4
hepatocyte CLint at 1 µM [2]: 3.9 µL/min/1e6 cells
CL free [3]: 9.1 µL/min
microsomal CLint at 1 µM [4]: 44 µL/min/mg
CL free [5]: 83 µL/min/mg

SMILES: COc1cc(Cl)c(O[C@H]2CC[C@@](C)(C(=O)O)CC2)cc1C(=O)N[C@@H]1[C@@H]2CC[C@@H](C2)[C@@H]1C(=O)NCC1(C)CCC1
logD [1]: 3.6
hepatocyte CLint at 1 µM [2]: 49 µL/min/1e6 cells
CL free [3]: 153 µL/min
microsomal CLint at 1 µM [4]: 20 µL/min/mg
CL free [5]: 100 µL/min/mg

SMILES: COc1cc(C#N)c(O[C@H]2CC[C@@](C)(C(=O)O)CC2)cc1C(=O)N[C@@H]1[C@H]2CC[C@H](C2)[C@@H]1C(=O)NCC1(C)CCC1
logD [1]: 2.85
hepatocyte CLint at 1 µM [2]: 5.5 µL/min/1e6 cells
CL free [3]: 10 µL/min
microsomal CLint at 1 µM [4]: 20 µL/min/mg
CL free [5]: 30 µL/min/mg

SMILES: COc1c(F)cc(O[C@H]2CC[C@@](C)(C(=O)O)CC2)cc1C(=O)N[C@@H]1[C@H]2CC[C@H](C2)[C@@H]1C(=O)NCC1(C)CCC1
logD [1]: 3.3
hepatocyte CLint at 1 µM [2]: 5.3 µL/min/1e6 cells
CL free [3]: 9.5 µL/min
microsomal CLint at 1 µM [4]: 44 µL/min/mg
CL free [5]: 73 µL/min/mg

SMILES: COc1c(Cl)cc(O[C@H]2CC[C@@](C)(C(=O)O)CC2)cc1C(=O)N[C@@H]1[C@H]2CC[C@H](C2)[C@@H]1C(=O)NCC1(C)CCC1
logD [1]: 3.3
hepatocyte CLint at 1 µM [2]: 13 µL/min/1e6 cells
CL free [3]: 31 µL/min
microsomal CLint at 1 µM [4]: 81 µL/min/mg
CL free [5]: 147 µL/min/mg

SMILES: CC1(CNC(=O)[C@H]2[C@@H]3CC[C@@H](C3)[C@H]2NC(=O)c2cc(O[C@H]3CC[C@@](C)(C(=O)O)CC3)c(F)cc2O)CCC1
logD [1]: 3.3
hepatocyte CLint at 1 µM [2]: 58 µL/min/1e6 cells
CL free [3]: 105 µL/min
microsomal CLint at 1 µM [4]: 12.6 µL/min/mg
CL free [5]: 17 µL/min/mg

SMILES: CC1(CNC(=O)[C@H]2[C@@H]3CC[C@@H](C3)[C@H]2NC(=O)c2cc(O[C@H]3CC[C@@](C)(C(=O)O)CC3)c(F)cc2F)CCC1
logD [1]: 2.9
hepatocyte CLint at 1 µM [2]: 6.7 µL/min/1e6 cells
CL free [3]: 10 µL/min
microsomal CLint at 1 µM [4]: 37 µL/min/mg
CL free [5]: 49 µL/min/mg

Now from value to compound, other results behind:

logD [1]: 2.9
microsomal CLint at 1 µM [4]: 25 µL/min/mg
CL free [5]: 30 µL/min/mg
SMILES: CC1(CNC(=O)[C@H]2[C@@H]3CC[C@@H](C3)[C@H]2NC(=O)c2cc(O[C@H]3CC[C@@](C)(C(=O)O)CC3)cc3c2OCC3)CCC1
hepatocyte CLint at 1 µM [2]: 3.3 µL/min/1e6 cells
CL free [3]: 5.1 µL/min

logD [1]: 3.5
microsomal CLint at 1 µM [4]: 36 µL/min/mg
CL free [5]: 64 µL/min/mg
SMILES: COc1cc(Cl)c(O[C@H]2CC[C@@](C)(C(=O)O)CC2)cc1C(=O)N[C@@H]1[C@H]2CC[C@H](C2)[C@@H]1C(=O)NCC1(C)CCC1
hepatocyte CLint at 1 µM [2]: 4.8 µL/min/1e6 cells
CL free [3]: 14 µL/min

logD [1]: 1.9
microsomal CLint at 1 µM [4]: 11 µL/min/mg
CL free [5]: 14 µL/min/mg
SMILES: COc1cc(S(C)(=O)=O)c(O[C@H]2CC[C@@](C)(C(=O)O)CC2)cc1C(=O)N[C@@H]1[C@H]2CC[C@H](C2)[C@@H]1C(=O)NCC1(C)CCC1
hepatocyte CLint at 1 µM [2]: 1.2 µL/min/1e6 cells
CL free [3]: 1.7 µL/min

logD [1]: 2.8
microsomal CLint at 1 µM [4]: 15 µL/min/mg
CL free [5]: 29 µL/min/mg
SMILES: COc1cc(F)c(O[C@H]2CC[C@@](C)(c3nnn[nH]3)CC2)cc1C(=O)N[C@@H]1[C@H]2CC[C@H](C2)[C@@H]1C(=O)NCC1(C)CCC1
hepatocyte CLint at 1 µM [2]: 5.8 µL/min/1e6 cells
CL free [3]: 13 µL/min

logD [1]: 5.4
microsomal CLint at 1 µM [4]: > 300 µL/min/mg
CL free [5]: 2.8 10^3uL/min/mg
SMILES: COc1cc(F)c(O[C@H]2CC[C@@](C)(c3n[nH]c(=O)o3)CC2)cc1C(=O)N[C@@H]1[C@H]2CC[C@H](C2)[C@@H]1C(=O)NCC1(C)CCC1
hepatocyte CLint at 1 µM [2]: 73 µL/min/1e6 cells
CL free [3]: 562 µL/min

logD [1]: 3.3
microsomal CLint at 1 µM [4]: 34 µL/min/mg
CL free [5]: 59 µL/min/mg
SMILES: CC1(CNC(=O)[C@H]2[C@@H]3CC[C@@H](C3)[C@H]2NC(=O)c2cc(O[C@H]3CC[C@@](C)(C(=O)O)CC3)c(F)cc2OC(F)F)CCC1
hepatocyte CLint at 1 µM [2]: 26 µL/min/1e6 cells
CL free [3]: 52 µL/min

logD [1]: 2
microsomal CLint at 1 µM [4]: 7.6 µL/min/mg
CL free [5]: 10 µL/min/mg
SMILES: COc1cc(F)c(O[C@H]2C[C@@](C)(C(=O)O)C2)cc1C(=O)N[C@@H]1[C@H]2CC[C@H](C2)[C@@H]1C(=O)NCC1(C)CCC1
hepatocyte CLint at 1 µM [2]: 4.3 µL/min/1e6 cells
CL free [3]: 5.4 µL/min

logD [1]: 3.7
microsomal CLint at 1 µM [4]: 27 µL/min/mg
CL free [5]: 62 µL/min/mg
SMILES: COc1cc(C2CC2)c(O[C@H]2CC[C@@](C)(C(=O)O)CC2)cc1C(=O)N[C@@H]1[C@H]2CC[C@H](C2)[C@@H]1C(=O)NCC1(C)CCC1
hepatocyte CLint at 1 µM [2]: 5.3 µL/min/1e6 cells
CL free [3]: 13 µL/min

logD [1]: 3.8
microsomal CLint at 1 µM [4]: 23 µL/min/mg
CL free [5]: 39 µL/min/mg
SMILES: COc1cc(C(F)F)c(O[C@H]2CC[C@@](C)(C(=O)O)CC2)cc1C(=O)N[C@@H]1[C@H]2CC[C@H](C2)[C@@H]1C(=O)NCC1(C)CCC1
hepatocyte CLint at 1 µM [2]: 5.1 µL/min/1e6 cells
CL free [3]: 11 µL/min

logD [1]: 2.9
microsomal CLint at 1 µM [4]: 7 µL/min/mg
CL free [5]: 10 µL/min/mg
SMILES: COc1c(C)cc(O[C@H]2CC[C@@](C)(C(=O)O)CC2)cc1C(=O)N[C@@H]1[C@H]2CC[C@H](C2)[C@@H]1C(=O)NCC1(C)CCC1
hepatocyte CLint at 1 µM [2]: 5.6 µL/min/1e6 cells
CL free [3]: 8.9 µL/min

logD [1]: 3.4
microsomal CLint at 1 µM [4]: 33 µL/min/mg
CL free [5]: 50 µL/min/mg
SMILES: COc1cc(F)c(O[C@H]2CC[C@@](C)(C(=O)O)CC2)cc1C(=O)N[C@@H]1[C@H]2CC[C@H](C2)[C@@H]1C(=O)N[C@H](C)C(C)(C)C
hepatocyte CLint at 1 µM [2]: 5.9 µL/min/1e6 cells
CL free [3]: 11 µL/min

logD [1]: 3.5
microsomal CLint at 1 µM [4]: 38 µL/min/mg
CL free [5]: 54 µL/min/mg
SMILES: COc1cc(C)c(O[C@H]2CC[C@@](C)(C(=O)O)CC2)cc1C(=O)N[C@@H]1[C@H]2CC[C@H](C2)[C@@H]1C(=O)NCC1(C)CCC1
hepatocyte CLint at 1 µM [2]: 3.1 µL/min/1e6 cells
CL free [3]: 4.9 µL/min
